What was measured:
[1] = Intrinsic clearance in mouse liver microsomes; type: ADME, Microsome; conditions: read-out: CLH
[2] = Intrinsic clearance in human liver microsomes; type: ADME, Microsome; conditions: read-out: CLH
[3] = Cytotoxicity against human HepDE19 cells by CellTiter-Glo assay; type: toxicity, cell-based
[4] = Selectivity index, ratio of CC50 for cytotoxicity against human HepDE19 cells to EC50 for antiviral activity against Hepatitis B virus genotype D infected in HepDE19 cells; type: toxicity, cell-based; conditions: read-out: Ratio CC50/EC50
Hepatitis B virus [5] = assay: Antiviral activity against Hepatitis B virus genotype D infected in HepDE19 cells assessed as inhibition of viral replication by measuring decrease in intracellular rcDNA level by bDNA assay; type: functional, organism-based
[6] = Cmax in CD-1 mouse at 10 mg/kg, po; type: ADME, organism-based; conditions: in vivo
[7] = Half life in CD-1 mouse at 10 mg/kg, po; type: ADME, organism-based; conditions: in vivo
Cytochrome P450 2B6 = molecular target: T1, Cytochrome P450 2B6 (Homo sapiens, UniProt P20813); assay: Inhibition of CYP2B6 (unknown origin); type: ADME
T1 sequence (P20813 whole entry): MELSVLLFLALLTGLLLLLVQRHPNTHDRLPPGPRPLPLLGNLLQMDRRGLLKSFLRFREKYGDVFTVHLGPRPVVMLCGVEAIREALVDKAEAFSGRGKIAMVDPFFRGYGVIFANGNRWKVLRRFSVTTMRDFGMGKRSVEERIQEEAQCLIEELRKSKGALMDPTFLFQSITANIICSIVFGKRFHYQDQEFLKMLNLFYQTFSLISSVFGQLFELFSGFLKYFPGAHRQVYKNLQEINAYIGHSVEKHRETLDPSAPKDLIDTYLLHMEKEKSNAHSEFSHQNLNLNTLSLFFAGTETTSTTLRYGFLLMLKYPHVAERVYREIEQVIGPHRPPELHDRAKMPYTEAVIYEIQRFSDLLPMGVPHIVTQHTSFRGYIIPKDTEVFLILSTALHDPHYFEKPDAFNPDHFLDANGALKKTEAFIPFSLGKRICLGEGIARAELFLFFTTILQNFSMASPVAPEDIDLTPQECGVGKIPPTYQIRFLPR

Hepatitis B virus [8] = assay: Antiviral activity against Hepatitis B virus genotype D harboring core protein-T33N mutant; type: functional, organism-based
Cytochrome P450 2D6 = Cytochrome P450 2D6 (Homo sapiens, UniProt P10635); assay: Inhibition of CYP2D6 (unknown origin); type: ADME
Cytochrome P450 3A4 = Cytochrome P450 3A4 (Homo sapiens, UniProt P08684); assay: Inhibition of CYP3A4 (unknown origin); type: ADME
Hepatitis B virus [9] = assay: Anti-viral activity against Hepatitis B virus infected in mouse assessed as log10 reduction of HBV DNA levels in serum at 3 mg/kg, po qd for 7 days; type: functional; conditions: time 7 day
Hepatitis B virus [10] = assay: Anti-viral activity against Hepatitis B virus infected in mouse assessed as log10 reduction of HBV DNA levels in serum at 10 mg/kg, po qd for 7 days; type: functional; conditions: time 7 day
Cytochrome P450 2C9 = Cytochrome P450 2C9 (Homo sapiens, UniProt P11712); assay: Inhibition of CYP2C9 (unknown origin); type: ADME
[11] = AUC(last) in CD-1 mouse at 10 mg/kg, po; type: ADME, organism-based; conditions: in vivo
Cytochrome P450 2C19 = Cytochrome P450 2C19 (Homo sapiens, UniProt P33261); assay: Inhibition of CYP2C19 (unknown origin); type: ADME
[12] = Drug uptake in CD-1 mouse liver at 10 mg/kg, po or 2 mg/kg, iv measured after 24 hrs; type: ADME, organism-based; conditions: read-out: Drug uptake
[13] = Hepatitis B virus, genotype D, HepDE19

Chain of Cytochrome P450 3A4 (P08684 whole entry): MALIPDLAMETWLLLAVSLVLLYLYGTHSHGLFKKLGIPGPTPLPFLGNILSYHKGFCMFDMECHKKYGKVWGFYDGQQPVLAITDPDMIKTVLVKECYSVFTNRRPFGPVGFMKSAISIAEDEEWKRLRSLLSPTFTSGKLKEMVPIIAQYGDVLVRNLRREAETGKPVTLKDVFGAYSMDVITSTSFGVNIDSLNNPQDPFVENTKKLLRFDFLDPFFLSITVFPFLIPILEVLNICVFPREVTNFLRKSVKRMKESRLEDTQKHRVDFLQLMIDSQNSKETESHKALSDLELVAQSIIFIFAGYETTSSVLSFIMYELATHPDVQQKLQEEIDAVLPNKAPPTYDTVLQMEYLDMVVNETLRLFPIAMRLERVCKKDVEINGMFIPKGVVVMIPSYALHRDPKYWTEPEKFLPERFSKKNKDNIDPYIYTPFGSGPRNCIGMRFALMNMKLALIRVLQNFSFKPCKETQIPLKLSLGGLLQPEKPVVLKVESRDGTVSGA
Chain of Cytochrome P450 2C19 (P33261 whole entry): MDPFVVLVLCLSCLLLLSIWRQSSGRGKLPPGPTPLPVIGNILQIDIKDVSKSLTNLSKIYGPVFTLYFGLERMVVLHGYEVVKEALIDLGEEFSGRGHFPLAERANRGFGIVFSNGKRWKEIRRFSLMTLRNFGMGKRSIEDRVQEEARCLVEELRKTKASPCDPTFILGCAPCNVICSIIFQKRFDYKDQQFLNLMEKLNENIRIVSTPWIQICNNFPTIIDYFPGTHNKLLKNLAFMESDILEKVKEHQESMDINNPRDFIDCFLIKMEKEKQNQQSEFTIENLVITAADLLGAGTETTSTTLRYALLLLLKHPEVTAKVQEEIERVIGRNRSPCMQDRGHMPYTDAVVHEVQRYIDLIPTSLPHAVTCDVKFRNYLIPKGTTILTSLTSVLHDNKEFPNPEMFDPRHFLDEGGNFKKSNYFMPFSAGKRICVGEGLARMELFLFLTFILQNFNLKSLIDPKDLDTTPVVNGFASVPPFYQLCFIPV
Chain of Cytochrome P450 2D6 (P10635 whole entry): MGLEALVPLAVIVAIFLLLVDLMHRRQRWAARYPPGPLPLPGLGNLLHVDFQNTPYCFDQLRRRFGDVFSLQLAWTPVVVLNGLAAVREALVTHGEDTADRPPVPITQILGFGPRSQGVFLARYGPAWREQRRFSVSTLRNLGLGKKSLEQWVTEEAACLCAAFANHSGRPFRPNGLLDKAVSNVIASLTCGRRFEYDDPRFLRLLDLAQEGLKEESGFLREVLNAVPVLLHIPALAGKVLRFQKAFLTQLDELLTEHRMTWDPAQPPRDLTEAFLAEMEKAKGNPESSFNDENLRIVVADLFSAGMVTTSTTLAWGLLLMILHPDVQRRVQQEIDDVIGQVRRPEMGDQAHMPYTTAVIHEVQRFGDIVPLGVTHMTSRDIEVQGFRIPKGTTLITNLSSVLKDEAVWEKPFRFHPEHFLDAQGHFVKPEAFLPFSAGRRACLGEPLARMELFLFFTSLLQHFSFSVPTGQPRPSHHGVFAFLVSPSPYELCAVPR
Chain of Cytochrome P450 2C9 (P11712 whole entry): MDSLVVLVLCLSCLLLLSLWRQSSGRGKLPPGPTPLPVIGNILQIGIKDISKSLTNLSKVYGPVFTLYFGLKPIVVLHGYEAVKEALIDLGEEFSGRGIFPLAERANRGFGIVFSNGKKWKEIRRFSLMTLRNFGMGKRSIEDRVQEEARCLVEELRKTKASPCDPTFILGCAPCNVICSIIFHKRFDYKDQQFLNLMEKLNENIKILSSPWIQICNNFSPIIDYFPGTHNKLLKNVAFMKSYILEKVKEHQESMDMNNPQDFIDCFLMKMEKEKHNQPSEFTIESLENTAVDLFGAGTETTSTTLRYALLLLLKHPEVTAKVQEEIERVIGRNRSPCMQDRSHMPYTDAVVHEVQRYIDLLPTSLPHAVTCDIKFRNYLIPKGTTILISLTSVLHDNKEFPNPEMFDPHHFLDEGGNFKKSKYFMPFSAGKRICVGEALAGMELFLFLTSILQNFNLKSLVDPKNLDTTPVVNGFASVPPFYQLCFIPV

SMILES | EC50 (Hepatitis B virus [5]; [13]) [nM] | CC50 [3] [nM] | selectivity ratio [4] | other results
CN1Cc2[nH]c(=O)c3cc(F)c(F)cc3c2[C@H](N(C)C(=O)Nc2ccc(F)c(Cl)c2)C1 | 180 | > 10000 | > 1500 | 
CN(C(=O)Nc1ccc(F)c(Cl)c1)[C@@H]1CN(CCO)Cc2[nH]c(=O)c3cc(F)c(F)cc3c21 | 1360 | > 10000 | > 1500 | 
CN(C(=O)Nc1ccc(F)c(Cl)c1)[C@@H]1COCc2[nH]c(=O)c3cc(F)c(F)cc3c21 | 7 | > 10000 | > 1500 | Cmax [6]: 690 ng/mL; half-life [7]: 3.1 h; IC50 (Cytochrome P450 2B6): > 15000 nM; EC50 (Hepatitis B virus [8]): 400 nM; IC50 (Cytochrome P450 2D6): > 15000 nM; IC50 (Cytochrome P450 3A4): > 15000 nM; log(activity) (Hepatitis B virus [9]): 1.04; microsomal CLint [1]: 27 µL/min/mg; log(activity) (Hepatitis B virus [10]): 2.86; IC50 (Cytochrome P450 2C9): > 15000 nM; AUC(0-t) [11]: 6990 ng·h/mL; microsomal CLint [2]: 54 µL/min/mg; IC50 (Cytochrome P450 2C19): > 15000 nM; concentration at 24 h [12]: 150 ng/g
CN(C(=O)Nc1ccc(F)c(Cl)c1)C1CCCc2[nH]c(=O)c3cc(F)cc(F)c3c21 (racemic) | 510 | > 10000 | > 1500 | 
CN(C(=O)Nc1ccc(F)c(Cl)c1)C1CCCc2[nH]c(=O)c3ccccc3c21 (stereo in doubt) |  |  |  | EC50 (Hepatitis B virus [5]; hepde19): 760 nM
CN(C(=O)Nc1ccc(F)c(Cl)c1)C1CCCc2[nH]c(=O)c3cc(F)c(F)cc3c21 (racemic) |  | > 10000 |  | EC50 (Hepatitis B virus [5]; hepde19): 19 nM
CN(C(=O)Nc1ccc(F)c(Cl)c1)C1CCCc2[nH]c(=O)c3ccccc3c21 (stereo in doubt; 2b) |  |  |  | EC50 (Hepatitis B virus [5]; hepde19): 45 nM

The next lines start with results.

EC50 (Hepatitis B virus [5]; [13]) [nM] | SMILES | CC50 [3] [nM] | selectivity ratio [4] | other results
9 | CN(C(=O)c1cc2ccccc2[nH]1)[C@@H]1COCc2[nH]c(=O)c3cc(F)c(F)cc3c21 | > 10000 | > 1500 | microsomal CLint [1]: 70 µL/min/mg; microsomal CLint [2]: 91 µL/min/mg
31 | CN(C(=O)Nc1ccc(F)c(Cl)c1)C1CCCc2[nH]c(=O)c3cc(F)ccc3c21 (racemic) | > 10000 | > 1500 | 
150 | CN(C(=O)Nc1ccc(F)c(Cl)c1)C1CCCCc2[nH]c(=O)c3ccccc3c21 (racemic) | > 10000 | > 1500 | 
8 | CN(C(=O)Nc1ccc(F)c(C#N)c1)[C@@H]1COCc2[nH]c(=O)c3cc(F)c(F)cc3c21 | > 10000 | > 1500 | Cmax [6]: 720 ng/mL; half-life [7]: 2.4 h; AUC(0-t) [11]: 4330 ng·h/mL; concentration at 24 h [12]: 8 ng/g
21 | CN(C(=O)Nc1ccc(F)c(Cl)c1)[C@@H]1CSCc2[nH]c(=O)c3cc(F)c(F)cc3c21 | > 10000 | > 1500 | microsomal CLint [1]: 112 µL/min/mg; microsomal CLint [2]: 216 µL/min/mg
33 | CN(C(=O)Nc1ccccc1)[C@@H]1COCc2[nH]c(=O)c3cc(F)c(F)cc3c21 | > 10000 | > 1500 | 
87 | CN(C(=O)Nc1ccc(F)c(Cl)c1)C1CCc2[nH]c(=O)c3ccccc3c21 (racemic) | > 10000 | > 1500 | 
